Results reported in article PMC7822176, “Pursuing the Complexity of Alzheimer’s Disease: Discovery of Fluoren-9-Amines as Selective Butyrylcholinesterase Inhibitors and N-Methyl-D-Aspartate Receptor Antagonists” (Biomolecules, 2020).
Like-named read-outs stand apart in the source and are kept apart here.

Legend:
[1] = MTT cell viability test, hCMEC/D3; format: cell-based; settings: human, read-out: % viable cells hCMEC/D3
Method: Standard MTT assay (3-(4,5-dimethylthiazol-2-yl)-2,5-diphenyltetrazolium bromide; Sigma Aldrich, Prague, Czech Republic) was used according to the manufacturer’s protocols on the CHO-K1 (Chinese hamster ovary, ECACC, Salisbury, UK) and hCMEC/D3 (Sigma Aldrich, St. Louis, MO, USA). The cells were cultured according to recommended conditions and seeded in a density of 8000 cells per well, as described previously. […] CHO-K1 cells were exposed to serially diluted tested compounds for 24 h. Then, the medium was replaced by a fresh medium containing 0.5 mg/mL of MTT, and the cells were allowed to produce formazan for another approximately 3 h under surveillance. Thereafter, the medium with MTT was removed, and crystals of formazan were dissolved in DMSO (100 µL/well; PENTA s.r.o., Prague, Czech Republic). Cell viability was assessed spectrophotometrically by the amount of formazan produced. The absorbance was measured at 570 nm with a 650-nm reference wavelength on Synergy HT (BioTek, Winooski, VT, USA). […] Final IC50 and SEM (standard error of the mean) values were obtained as a mean of three independent measurements.

[2] = in vitro; settings: human
Method: (§1) The D3 assay evaluates the ability of compounds to diffuse from the donor compartment through the D3/hCMEC cell membrane into the acceptor compartment. The D3 cells were seeded on a PET membrane (area 1.12 cm^2) with 3-µm pores of the 12-well plates with 12-mm inserts. […] The donor solution (750 µL) was added to the donor compartment (insert), and the same volume of Opti-MEM was added into the acceptor. The concentration of the drug in both compartments was measured by UV-VIS spectrophotometry in 5, 15, 30, and 60 min of incubation in triplicates. The apparent permeability coefficient (Papp) was calculated from the concentration ratios. Tightness of the D3 monolayer was conducted by the fluorescein isothiocyanate (FITC) test after each experiment. […] (1) Papp= dC/dt × Vr/A × C0 • A: area of the well/cell monolayer, • dC/dt: amount in the receiver compartment in given time, • Vr: volume of the receiver compartment, and • C0: the initial concentration of tested compounds.

[3] = test system: hCMEC/D3 cell monolayer; experiment: in vitro; settings: for potential of BBB permeation (in words): Papp correlated to reference drugs
Method: as §1

[4] = molecular target: NMDA receptor; settings: read-out: IC50 inhibition of NMDA receptor responses; at −60 mV; cited from earlier work
[5] = molecular target: T1, hBChE (Homo sapiens, UniProt P06276); experiment: biochemical; format: biochemical; settings: for IC50: mean of at least three experiments, read-out: IC50 ± SEM hBChE
T1 construct: made in house
Method: The human recombinant BChE and AChE were prepared at the Department of Toxicology and Military Pharmacy (Faculty of Military Health Sciences, Hradec Kralove, Czech Republic). 5,5′-dithiobis(2-nitrobenzoic acid) (Ellman’s reagent, DTNB), phosphate buffer (PB, pH 7.4), acetylthiocholine (ATC), and butyrylthiocholine (BTC) were purchased from Sigma-Aldrich, Prague, Czech Republic. For measuring purposes, polystyrene Nunc 96-well microplates with a flat bottom shape (Thermo Fisher Scientific, Waltham, MA, USA) were utilized. All the assays were carried out in 0.1-M KH2PO4/K2HPO4 buffer, pH 7.4. Enzyme solutions were prepared at 2.0 units/mL in 2-mL aliquots. […] Tested compounds were preincubated for 5 min. The reaction was started by the immediate addition of 20 µL of the substrate. […] Each concentration was assayed in triplicate. Software GraphPad Prism 5 (San Diego, CA, USA) was used for the statistical data evaluation.

[6] = molecular target: T2, GluN1/GluN2A receptors (Homo sapiens, UniProt Q05586+Q12879); experiment: cell-based; settings: for inhibition at 10 µM: HEK293, read-out: RI (%) ± SEM GluN1/GluN2A
T2 construct: expressed in transfected cells; host or cells: HEK293
Method: (§2) The cells grown in a 24-well plate were put in Opti-MEM I media containing a mixture of 0.9 µL of MATra-A Reagent (IBA) and 900 ng of DNA vectors carrying the human versions of the GluN1-1a (GluN1), GluN2A, or GluN2B subunits and green fluorescent protein (GFP; all vectors were added in equal ratio). The cells were placed on a strong magnet plate for 30 min and then trypsinized; resuspended in Opti-MEM I containing 1% FBS, 20-mM MgCl2, and 3-mM kynurenic acid (to inhibit the NMDAR-induced excitotoxicity); and plated on poly-L-lysine-coated glass coverslips. The electrophysiological experiments were executed 24–48 h after transfection.
(§3) Whole-cell patch-clamp recordings were conducted at room temperature on the GFP-positive HEK293 cells using an Axopatch 200B amplifier (Molecular Devices, San Jose, CA, USA); the series resistance compensation was >80% for all cells. […] The WAS02 application system, which can reach the solution exchange time around the recorded cell of 10–20 ms, was used to apply the extracellular solution (ECS).

[7] = molecular target: T3, GluN1/GluN2B receptors (Homo sapiens, UniProt Q05586+Q13224); experiment: cell-based; settings: for inhibition at 10 µM: HEK293, read-out: RI (%) ± SEM GluN1/GluN2B
T3 construct: expressed in transfected cells; host or cells: HEK293
Method: as §2, §3

[8] = MTT cell viability assay, CHO-K1; format: cell-based; settings: Chinese hamster, CHO-K1 cells, 24 h exposure, mean of three independent measurements, read-out: IC50 ± SEM CHO-K1 cell viability
Method: Standard MTT assay (3-(4,5-dimethylthiazol-2-yl)-2,5-diphenyltetrazolium bromide; Sigma Aldrich, Prague, Czech Republic) was used according to the manufacturer’s protocols on the CHO-K1 (Chinese hamster ovary, ECACC, Salisbury, UK) and hCMEC/D3 (Sigma Aldrich, St. Louis, MO, USA). The cells were cultured according to recommended conditions and seeded in a density of 8000 cells per well, as described previously. […] CHO-K1 cells were exposed to serially diluted tested compounds for 24 h. Then, the medium was replaced by a fresh medium containing 0.5 mg/mL of MTT, and the cells were allowed to produce formazan for another approximately 3 h under surveillance. Thereafter, the medium with MTT was removed, and crystals of formazan were dissolved in DMSO (100 µL/well; PENTA s.r.o., Prague, Czech Republic). Cell viability was assessed spectrophotometrically by the amount of formazan produced. The absorbance was measured at 570 nm with a 650-nm reference wavelength on Synergy HT (BioTek, Winooski, VT, USA). The IC50 value (half-maximal inhibitory concentration) was calculated from the control-subtracted triplicates using nonlinear regression (four parameters) by GraphPad Prism 7.03 software (GraphPad Software Inc., San Diego, CA, USA) for the CHO-K1 cell line, and for hCMEC/D3 cells, the cell viability was expressed as the % relative to the untreated control. Final IC50 and SEM (standard error of the mean) values were obtained as a mean of three independent measurements.

[9] = molecular target: T1, hBChE; experiment: Kinetic study of hBChE inhibition; format: biochemical
Method: The kinetic study of hBChE was performed by using the above-mentioned modified Ellman’s method. The values of Vmax and Km of the Michaelis-Menten kinetics, as well as the value of Ki, were calculated by nonlinear regression from the substrate velocity curves. Linear regression was used for calculation of the Cornish-Bowden plots. All calculations were performed using GraphPad Prism software version 6.07 for Windows (San Diego, CA, USA).

[10] = final prediction from Papp correlated to reference drugs

T2 sequence (Q12879 23-1464, other chains not shown): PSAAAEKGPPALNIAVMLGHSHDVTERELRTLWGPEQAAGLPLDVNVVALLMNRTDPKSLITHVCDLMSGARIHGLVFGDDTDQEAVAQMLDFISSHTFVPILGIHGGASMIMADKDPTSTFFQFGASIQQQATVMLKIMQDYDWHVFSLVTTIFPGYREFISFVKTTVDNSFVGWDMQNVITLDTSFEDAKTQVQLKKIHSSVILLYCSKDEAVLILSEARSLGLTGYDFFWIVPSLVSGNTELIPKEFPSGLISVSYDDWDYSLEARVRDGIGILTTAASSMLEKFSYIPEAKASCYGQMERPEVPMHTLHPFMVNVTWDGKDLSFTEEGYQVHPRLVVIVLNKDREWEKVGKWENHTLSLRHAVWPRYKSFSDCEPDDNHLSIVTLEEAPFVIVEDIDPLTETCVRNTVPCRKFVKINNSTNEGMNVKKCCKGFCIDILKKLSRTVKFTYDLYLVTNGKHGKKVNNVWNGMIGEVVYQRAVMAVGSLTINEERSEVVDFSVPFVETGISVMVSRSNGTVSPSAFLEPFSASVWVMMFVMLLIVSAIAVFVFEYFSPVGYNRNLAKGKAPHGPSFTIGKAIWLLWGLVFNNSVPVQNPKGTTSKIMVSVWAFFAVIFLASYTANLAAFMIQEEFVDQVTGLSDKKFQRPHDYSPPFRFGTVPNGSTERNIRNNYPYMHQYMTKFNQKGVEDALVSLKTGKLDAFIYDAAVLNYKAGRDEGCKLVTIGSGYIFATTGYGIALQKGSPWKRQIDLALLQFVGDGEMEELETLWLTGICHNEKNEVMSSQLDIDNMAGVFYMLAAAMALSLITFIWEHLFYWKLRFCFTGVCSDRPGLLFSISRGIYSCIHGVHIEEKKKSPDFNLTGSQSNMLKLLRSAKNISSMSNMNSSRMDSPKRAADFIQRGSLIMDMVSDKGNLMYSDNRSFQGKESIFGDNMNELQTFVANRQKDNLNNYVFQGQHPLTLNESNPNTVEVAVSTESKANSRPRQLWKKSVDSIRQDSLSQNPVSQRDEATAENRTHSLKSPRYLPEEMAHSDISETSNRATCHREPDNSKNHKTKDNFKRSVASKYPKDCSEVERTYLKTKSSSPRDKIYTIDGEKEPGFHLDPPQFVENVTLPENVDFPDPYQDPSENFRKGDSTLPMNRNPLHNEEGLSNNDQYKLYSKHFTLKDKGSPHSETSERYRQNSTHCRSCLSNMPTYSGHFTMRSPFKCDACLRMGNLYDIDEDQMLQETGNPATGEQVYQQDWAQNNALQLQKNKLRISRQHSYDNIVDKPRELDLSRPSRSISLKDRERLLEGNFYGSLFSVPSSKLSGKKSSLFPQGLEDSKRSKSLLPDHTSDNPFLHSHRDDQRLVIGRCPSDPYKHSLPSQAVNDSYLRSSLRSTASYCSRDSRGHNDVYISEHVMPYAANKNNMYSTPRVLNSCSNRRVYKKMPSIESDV
T1 sequence (P06276 29-602): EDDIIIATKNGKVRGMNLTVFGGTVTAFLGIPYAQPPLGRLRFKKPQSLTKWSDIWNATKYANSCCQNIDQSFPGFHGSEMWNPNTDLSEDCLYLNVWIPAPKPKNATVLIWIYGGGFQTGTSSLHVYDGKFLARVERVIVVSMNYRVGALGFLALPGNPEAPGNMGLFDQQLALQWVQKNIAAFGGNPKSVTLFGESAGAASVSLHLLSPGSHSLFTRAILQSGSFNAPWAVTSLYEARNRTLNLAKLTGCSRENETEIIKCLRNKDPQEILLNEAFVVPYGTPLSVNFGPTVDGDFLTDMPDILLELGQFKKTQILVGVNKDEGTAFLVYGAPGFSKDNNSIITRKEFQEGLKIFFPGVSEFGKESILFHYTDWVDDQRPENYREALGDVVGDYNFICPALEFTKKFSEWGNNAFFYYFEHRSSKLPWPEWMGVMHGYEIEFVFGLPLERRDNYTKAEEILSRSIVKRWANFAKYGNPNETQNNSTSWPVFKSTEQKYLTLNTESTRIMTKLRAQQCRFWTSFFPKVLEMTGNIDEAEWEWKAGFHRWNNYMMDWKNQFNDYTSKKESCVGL
T3 sequence (Q13224 27-1484, other chains not shown): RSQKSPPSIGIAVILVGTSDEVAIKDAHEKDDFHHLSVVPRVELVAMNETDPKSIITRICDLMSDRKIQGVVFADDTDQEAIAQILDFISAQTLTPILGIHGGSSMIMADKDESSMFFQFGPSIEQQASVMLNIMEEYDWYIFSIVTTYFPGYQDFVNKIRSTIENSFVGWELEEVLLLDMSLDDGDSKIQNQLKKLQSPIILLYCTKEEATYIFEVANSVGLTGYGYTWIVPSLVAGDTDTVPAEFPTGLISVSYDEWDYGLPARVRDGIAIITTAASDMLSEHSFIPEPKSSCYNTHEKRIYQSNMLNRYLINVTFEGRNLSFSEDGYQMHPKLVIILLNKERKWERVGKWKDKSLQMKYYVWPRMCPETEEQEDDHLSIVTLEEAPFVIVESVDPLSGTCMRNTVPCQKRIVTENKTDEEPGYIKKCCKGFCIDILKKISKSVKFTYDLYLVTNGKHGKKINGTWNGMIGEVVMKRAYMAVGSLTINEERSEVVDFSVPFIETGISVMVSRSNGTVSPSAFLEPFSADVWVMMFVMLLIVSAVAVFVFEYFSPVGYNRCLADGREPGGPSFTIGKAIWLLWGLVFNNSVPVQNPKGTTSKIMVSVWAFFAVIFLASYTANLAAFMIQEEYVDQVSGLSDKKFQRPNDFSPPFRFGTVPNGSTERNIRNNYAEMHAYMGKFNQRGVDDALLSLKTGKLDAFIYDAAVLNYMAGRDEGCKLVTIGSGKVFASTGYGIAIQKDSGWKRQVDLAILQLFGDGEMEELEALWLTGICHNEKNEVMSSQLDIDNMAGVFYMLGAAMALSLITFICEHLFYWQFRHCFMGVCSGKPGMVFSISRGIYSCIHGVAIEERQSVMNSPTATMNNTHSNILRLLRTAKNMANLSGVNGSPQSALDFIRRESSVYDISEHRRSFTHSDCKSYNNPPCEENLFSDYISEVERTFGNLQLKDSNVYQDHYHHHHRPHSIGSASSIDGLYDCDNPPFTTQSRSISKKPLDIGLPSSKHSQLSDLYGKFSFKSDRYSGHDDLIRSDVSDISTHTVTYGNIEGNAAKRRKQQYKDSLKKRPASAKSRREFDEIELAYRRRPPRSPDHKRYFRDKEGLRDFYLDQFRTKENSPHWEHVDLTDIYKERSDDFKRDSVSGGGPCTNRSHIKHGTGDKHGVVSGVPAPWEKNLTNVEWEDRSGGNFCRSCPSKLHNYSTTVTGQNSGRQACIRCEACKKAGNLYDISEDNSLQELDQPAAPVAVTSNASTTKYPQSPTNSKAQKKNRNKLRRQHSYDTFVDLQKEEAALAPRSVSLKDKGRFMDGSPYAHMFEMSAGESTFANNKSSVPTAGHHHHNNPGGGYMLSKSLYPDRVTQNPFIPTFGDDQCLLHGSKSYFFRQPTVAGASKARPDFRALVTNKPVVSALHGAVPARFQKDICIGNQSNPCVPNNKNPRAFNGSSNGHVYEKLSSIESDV

| Structure (SMILES) | Papp [2] [×10⁻⁶ cm/s] | IC50 [5] [µM] | inhibition at 10 µM [6] [%] | inhibition at 10 µM [7] [%] | IC50 at 24 h [8] [µM] | viability at 50 µM ([1]; hCMEC/D3 cells) [%] | viability at 100 µM ([1]; hCMEC/D3 cells) [%] | potential of BBB permeation (in words) [3] | CNS (+/−) [3, 10] | also measured |
| --- | --- | --- | --- | --- | --- | --- | --- | --- | --- | --- |
| Nc1c2c(nc3ccccc13)CCCC2 [THA, Tacrine, reference compound] | 22.3 ± 2.01 |  |  |  |  |  |  |  |  | viability at 50 µM [1]: 91.1%; viability at 100 µM [1]: 94.5%; CNS (+/−) [3]: CNS +; IC50 [4]: 20 µM |
| Cl.c1ccc2c(c1)-c1ccccc1C2NC1CCC1 [Compound 3e, N-Cyclobutyl-9H-fluoren-9-amine hydrochloride] | 13.5 ± 1.54 | 2.03 ± 0.08 | 52.3 ± 4.18 | 44.8 ± 3.43 | 192 ± 3 | 92.8 | 92.3 | low potential to passively pass the BBB | CNS − | h 40 mV GluN1/GluN2A (Hill coefficient) ([6]; 40 mV): 1.28 ± 0.12; IC50 ([6]; 40 mV, read-out: IC50 40 mV GluN1/GluN2A): 82.6 ± 14.2 µM; h −60 mV GluN1/GluN2A (Hill coefficient) ([6]; −60 mV): 1.07 ± 0.05; IC50 ([6]; −60 mV, read-out: IC50 −60 mV GluN1/GluN2A): 8.85 ± 1.21 µM; h 40 mV GluN1/GluN2B (Hill coefficient) ([7]; 40 mV): 1.10 ± 0.08; IC50 ([7]; 40 mV, read-out: IC50 40 mV GluN1/GluN2B): 156 ± 14.9 µM; h −60 mV GluN1/GluN2B (Hill coefficient) ([7]; −60 mV): 1.17 ± 0.05; IC50 ([7]; −60 mV, read-out: IC50 −60 mV GluN1/GluN2B): 15.3 ± 2.38 µM |
| Cl.c1ccc2c(c1)-c1ccccc1C2NC1CCCCC1 [Compound 3c, N-Cyclohexyl-9H-fluoren-9-amine hydrochloride] | 12.3 ± 2.33 | 0.47 ± 0.01 | 41 ± 3.56 | 17.2 ± 2.39 | 111 ± 10 | 93.4 | 82.9 | low potential to passively pass the BBB | CNS − | times less active compared to THA (hBChE inhibition) [5]: 20; Ki ([9]; nonlinear regression, substrate butyrylthiocholine): 0.173 ± 0.025 µM; type of inhibition ([9]; sum-of-squares F-test, Cornish–Bowden plot): competitive inhibition |
